SMILES strings stand for the structures. Marks after values point to notes of the source that are not given here.

The results in this text go back to US12544372B2, “Methods of treating rheumatoid arthritis, chronic spontaneous urticaria, and systemic lupus erythematosis using an inhibitor of Bruton's tyrosine kinase” (Genentech, Inc., priority 2019, dated 2026).

Holding throughout (assay type): in vivo, human
In series [1] the test system is patients with moderate to severe active rheumatoid arthritis. The series is described as follows: Phase II RA study, Cohort 2 (inadequate response or intolerance to TNF therapy): clinical efficacy. Particulars: Cohort 2, 200 mg BID. The text has this: A Two-Cohort Randomized Phase II, Double-Blind, Parallel Group Study in Patients with Active Rheumatoid Arthritis Evaluating the Efficacy and Safety of Fenebrutinib Compared with Placebo and Adalimumab in Patients with an Inadequate Response to Previous Methotrexate Therapy (Cohort 1) and Compared with Placebo in Patients with an Inadequate Response or Intolerance to Previous TNF Therapy (Cohort 2)
The study was a multicenter, Phase II, randomized, double-blind, placebo-controlled, active comparator (Cohort 1 only), parallel-group, dose-ranging study to evaluate the efficacy and safety of fenebrutinib in patients with moderate to severe active RA and an inadequate response to previous MTX therapy (Cohort 1) or MTX and TNF therapy who may have also had exposure to no more than one non-TNF inhibitor biologic (Cohort 2). Moderate to severe active RA was defined by ≥6 tender/painful joints on motion (68 joint count) and ≥6 swollen joints (66 joint count) at both screening and Day 1 (randomization), as well as a high sensitivity C-reactive protein (hsCRP)≥0. 400 mg/dL for Cohort 1 a hsCRP≥0.650 mg/dL for Cohort 2 at screening.
The study enrolled 578 patients. In Cohort 1, 480 MTX-IR patients were randomized to placebo (110 patients), ADA (111 patients), or one of three doses of fenebrutinib: 50 mg QD (40 patients), 150 mg QD (109 patients), or 200 mg BID (110 patients). In Cohort 2, 98 TNF-IR patients were randomized to placebo or 200 mg BID fenebrutinib. […]
ACR Assessments. The ACR's definition for calculating improvement in RA (ACR20) is calculated as a 20% improvement in tender and swollen joint counts and a 20% improvement in 3 of the 5 remaining ACR-core set measures: patient and physician global assessments, pain, disability, and an acute-phase reactant. Similarly, ACR50 and ACR70 are calculated with the respective percent improvements. […]

The nature of another series: RA study: safety. An excerpt: Investigator conducted assessments: Joint counts and Physician's Global Assessment of Arthritis visual analog scale (VAS), safety assessments (adverse events, vital signs, concomitant medications, review of laboratory data). For Cohort 1 only: SC comparator drug injection; For Cohorts 1 and 2: Administration of oral study drug.
For the next series, the system named is CXCL13. Briefly: RA study biomarker: CXCL13.
A further series deals with C3. The series is described as follows: SLE study biomarker: C3. The procedure: The following biomarkers were explored according to the biomarker objectives provided above in the Study Objectives. In Table 13, biomarkers are measured at baseline and subsequent timepoints during and after treatment. One set of biomarkers evaluated is the plasmablast signature. Plasmablasts are rapidly dividing, short-lived antibody secreting cells. While they represent a small proportion of B cells in the blood, they are responsible for a majority of antibody transcripts found in whole blood mRNA. The plasmablast signature comprises the biomarkers IgJ, Mzbl, and Txndc5. The gene expression of IgJ, Mzbl, and Txndc5 may be measured, for example, a polypeptide expression by evaluating the level of mRNA for said gene in a patient's blood relative to a reference level.

In a further series the test system is Anti-dsDNA. The series is described as follows: SLE study biomarker: anti-dsDNA autoantibodies. Particulars: patients positive at baseline (>30 IU/mL).
The test system of the next series is CRP. The series is described as follows: RA study: CRP versus baseline. The procedure:
As used herein, “CRP” refers to C-reactive protein, or the blood test for inflammation in the body which measures C-reactive protein in the blood. CRP, a protein produced in the liver, will increase in concentration in the blood in response to inflammation. CRP may be measured by a “hsCRP” test, which measures high sensitivity CRP. In some embodiments, a positive result for elevated CRP is as measured by hsCRP ≥0.400 mg/dL hsCRP test. In other embodiments, a positive result for elevated CRP is as measured by a hsCRP ≥0.650 mg/dL hsCRP test. CRP tests are widely available from a variety of vendors (LabCorp, Quest Diagnostics, Life Line Screening, etc.).
The specific components of the ACR Assessments used in this study are as follows: Tender/Painful Joint Count (68), Swollen Joint Count (66), Patient's Assessment of Arthritis Pain, Patient's Global Assessment of Arthritis, Physician's Global Assessment of Arthritis, CRP and HAQ-DI.

A further series concerns Total IgG. Briefly: SLE study biomarker: total IgG.

As to `C[C@H]1CN(C2COC2)CCN1c1ccc(Nc2cc(-c3ccnc(N4CCn5c(cc6c5CC(C)(C)C6)C4=O)c3CO)cn(C)c2=O)nc1` [fenebrutinib, (S)-2-(3′-(hydroxymethyl)-1-methyl-5-((5-(2-methyl-4-(oxetan-3-yl)piperazin-1-yl)pyridin-2-yl)amino)-6-oxo-1,6-dihydro-[3,4′-bipyridin]-2′-yl)-7,7-dimethyl-2,3,4,6,7,8-hexahydro-1H-cyclopenta[4,5]pyrrolo[1,2-a]pyrazin-1-one], the “DAS 28-3 (CRP) Adjusted Mean” value in series [1] (Week 12) is given as −1.96. Moreover, in series [1] (Week 12 Day 84), the “ACR50 Weighted Difference vs Placebo” value turned out to be 13.85. Besides, the “DAS 28-3 (CRP) Difference (d)” value in series [1] (versus placebo, Week 12) was −0.76. In addition, the overall safety profile result in “RA study: safety” (RA study) was “comparable to placebo and ADA”. For the same molecule, in “RA study: safety” (fenebrutinib arms versus placebo and ADA), the “Grade 3 LFT elevations” value is given as “numerically more”. Further, the “CXCL13 Reduction as % of Baseline” value in the series with CXCL13 (Cohort 1, 50 mg QD, Week 4) is 63%*; in the series with CXCL13 (Cohort 1, 50 mg QD, Week 12) it was 62%*; in the series with CXCL13 (Cohort 1, 150 mg QD, Week 4), 65%*; in the series on CXCL13 (Cohort 1, 150 mg QD, Week 12), 58%*; in the series with CXCL13 (Cohort 1, 200 mg BID, Week 4), 67%*; in the series with CXCL13 (Cohort 1, 200 mg BID, Week 12), 62%*. For the same molecule, the “C3, Median Change from Baseline at Week 48” value was “+0.01 g/L” with C3 (150 mg QD) and -0.01 g/L with C3 (200 mg BID). Moreover, the “Anti-dsDNA, Median Change from Baseline at Week 48” value in the series with Anti-dsDNA (150 mg QD) is listed as −38.3* IU/ml; in the series on Anti-dsDNA (200 mg BID), −75.7* IU/ml. Also, the “CRP, % of BL CRP” value in the series on CRP (Cohort 1, 200 mg BID, Week 8 and Week 12) amounted to 59%. Besides, in the series on CRP (Cohort 2, Week 8 and Week 12), the CRP levels result was “reduced CRP levels”. The “Total IgG, Median Change from Baseline at Week 48” value in the series with Total IgG (150 mg QD) is −1.25* g/L; in the series with Total IgG (200 mg BID) it was −1.56* g/L.
